Results as given in ChEMBL document CHEMBL3351856, “Structural revision of kynapcin-12 by total synthesis, and inhibitory activities against prolyl oligopeptidase and cancer cells” (Bioorg Med Chem Lett, 2014).
Each block holds one molecule with its values, some of them ahead of it. Bridge positions count the residues as written; N and C are the ends. Peptide text beside a SMILES is read from it.

Experiments:
cells = settings: Homo sapiens, HL-60, 48 h
Description: Cytotoxicity against human HL60 cells after 48 hrs by MTT assay

Prolyl endopeptidase = target: T1, Prolyl endopeptidase (Homo sapiens, UniProt P48147); test: Inhibition of prolyl oligopeptidase (unknown origin)
T1 sequence (P48147 whole entry): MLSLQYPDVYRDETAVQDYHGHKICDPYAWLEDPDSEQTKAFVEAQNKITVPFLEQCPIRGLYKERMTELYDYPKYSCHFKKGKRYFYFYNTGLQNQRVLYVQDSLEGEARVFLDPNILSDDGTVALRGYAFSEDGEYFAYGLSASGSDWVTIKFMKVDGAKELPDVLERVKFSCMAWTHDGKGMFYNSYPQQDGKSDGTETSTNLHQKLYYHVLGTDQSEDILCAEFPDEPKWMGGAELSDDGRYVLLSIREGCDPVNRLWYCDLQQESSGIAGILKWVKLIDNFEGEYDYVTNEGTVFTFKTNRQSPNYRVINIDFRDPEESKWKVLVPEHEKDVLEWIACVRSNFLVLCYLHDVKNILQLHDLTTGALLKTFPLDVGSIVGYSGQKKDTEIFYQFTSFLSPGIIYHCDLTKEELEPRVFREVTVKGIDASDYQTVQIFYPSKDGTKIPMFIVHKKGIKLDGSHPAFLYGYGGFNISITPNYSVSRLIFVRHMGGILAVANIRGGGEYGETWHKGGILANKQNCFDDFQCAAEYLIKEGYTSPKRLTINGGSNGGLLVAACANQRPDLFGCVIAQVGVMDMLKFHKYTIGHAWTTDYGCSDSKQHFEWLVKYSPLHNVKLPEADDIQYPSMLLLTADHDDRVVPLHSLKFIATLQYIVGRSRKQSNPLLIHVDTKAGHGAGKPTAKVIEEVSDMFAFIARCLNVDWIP

Structure (SMILES): CC(=O)Oc1c(OC(C)=O)c(-c2ccc(O)cc2)c(O)c(O)c1-c1ccc(O)cc1
IC50 (cells): > 20 µM

Structure (SMILES): COCc1c(COC)c(-c2ccc(O[Si](C)(C)C(C)(C)C)cc2)c(COC)c(COC)c1-c1ccc(O[Si](C)(C)C(C)(C)C)cc1
IC50 (cells): 14.4 µM | IC50 (Prolyl endopeptidase): > 50 µM

Structure (SMILES): COCC1=C(c2ccc(O[Si](C)(C)C(C)(C)C)cc2)C(=O)C(COC)=C(c2ccc(O[Si](C)(C)C(C)(C)C)cc2)C1=O
IC50 (cells): 6.5 µM

Structure (SMILES): COCc1c(OC(C)=O)c(-c2ccc(O[Si](C)(C)C(C)(C)C)cc2)c(COC)c(OC(C)=O)c1-c1ccc(O[Si](C)(C)C(C)(C)C)cc1
IC50 (cells): 19.1 µM | IC50 (Prolyl endopeptidase): > 50 µM

Structure (SMILES): CC(=O)OC1=C(c2ccc(O)cc2)C(=O)C(OC(C)=O)=C(c2ccc(O)cc2)C1=O
IC50 (cells): > 20 µM

Structure (SMILES): CC[C@H](C)[C@H](NC(=O)[C@H](Cc1ccccc1)NC(=O)[C@@H](NC(=O)[C@H](Cc1cnc[nH]1)NC(=O)CNC(=O)CNC(=O)[C@H](Cc1ccccc1)NC(=O)[C@H](CC(C)C)NC(=O)[C@@H]1CC(=O)NCC(=O)N[C@@H](Cc2ccc(O)cc2)C(=O)N2CCC[C@H]2C(=O)N[C@@H](Cc2c[nH]c3ccccc23)C(=O)N[C@@H](Cc2c[nH]c3ccccc23)C(=O)N[C@@H](CC(=O)O)C(=O)N[C@@H](Cc2ccc(O)cc2)C(=O)N[C@@H](CCCNC(=N)N)C(=O)N1)[C@@H](C)O)C(=O)N[C@@H](CO)C(=O)N1CCC[C@H]1C(=O)O (GYPWWDYRDLFGGHTFISP-OH; lactam N-9)
IC50 (Prolyl endopeptidase): 1.4 µM

Further molecules by falling IC50 (cells), results first:

IC50 (cells): 4.2 µM | IC50 (Prolyl endopeptidase): 3.5 µM
Structure (SMILES): CC(=O)Oc1c(OC(C)=O)c(-c2ccc(O[Si](C)(C)C(C)(C)C)cc2)c2c(c1-c1ccc(O[Si](C)(C)C(C)(C)C)cc1)OC(OC(C)=O)O2

IC50 (cells): 2.9 µM
Structure (SMILES): CC(=O)Oc1c(OC(C)=O)c(-c2ccc(O[Si](C)(C)C(C)(C)C)cc2)c2c(c1-c1ccc(O[Si](C)(C)C(C)(C)C)cc1)OCO2

IC50 (cells): 2.8 µM | IC50 (Prolyl endopeptidase): 15.1 µM
Structure (SMILES): CC(C)(C)[Si](C)(C)Oc1ccc(C2=C3OCOC3=C(c3ccc(O[Si](C)(C)C(C)(C)C)cc3)C(=O)C2=O)cc1
